TGI and GI50 data for 27 compounds are collected here from PubChem BioAssay (NCI).

Several values for one entry are separate records, joined by “and”; a condition that tells them apart may be missing. Identical values can stand only once.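 Five concentrations, 48 hours, 96-well plates. GI50 is the concentration that inhibits growth by half. TGI: concentration producing complete growth inhibition.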

The subject of this test is MDA-MB-468 breast. Kind of test: NCI tumour cell line growth inhibition, 48 h.
Consider `CN(Cc1cnc2nc(N)nc(N)c2n1)c1ccc(C(=O)N[C@@H](CCC(=O)O)C(=O)O)cc1`, for which the TGI was more than 250 µM.

`CC(C)c1c(-c2ccccc2)nc2c(C#N)c[nH]n2c1=O`: the GI50 is 19.1 µM and the TGI came out at 50.9 µM.

Turning to `COc1ccc2c(=O)cc(-c3ccccc3)[nH]c2c1`, the GI50 was 0.887 µM and the TGI was more than 100 µM.

As for `CCOC(=O)Nc1nc2ccc(OC)cc2s1`, the GI50 was 69.4 µM and the TGI was more than 100 µM.

With `COc1cccc(/C(C#N)=C/c2nc3c(N4CCOCC4)nc(Cl)nc3n2C)c1`, the GI50 was 0.497 µM and the TGI came out at 1.87 µM.

`COc1ccc(/C=C/C(=O)/C=C/c2cc3ccccc3[nH]c2=O)cc1`: the GI50 is 2.32 µM and the TGI came to 6.59 µM.

On to `CCCCCCCCOC(=O)CC[C@@H](C)[C@H]1CC[C@H]2[C@@H]3[C@H](OC(=O)CCN)C[C@@H]4C[C@H](OC(=O)CCN)CC[C@]4(C)[C@H]3C[C@H](OC(=O)CCN)[C@]12C`, for which the GI50 is 2.49 µM and the TGI turned out to be 7.17 µM.

Regarding `O=S(=O)(NCCNc1nccc(-c2c(-c3ccc(F)c(O)c3)nc3sccn23)n1)c1ccc(F)cc1`, the GI50 was 2.97 µM and the TGI was 25.5 µM.

Consider `COc1cc(F)c(F)c(Nc2ccc(I)cc2F)c1NS(=O)(=O)C1(C[C@H](O)CO)CC1`, for which the GI50 was more than 5.95 µM and the TGI is more than 10 µM.

Consider `Cc1nc(N)nc2c1CCC(O)S2` (configuration not stated), for which the GI50 is 2.74 µM and the TGI is 13 µM.

Regarding `CCNc1cc(-c2cccc(OC(F)(F)F)c2)nc2ccc(N3CCCC3)cc12`, the GI50 is 1.4 µM and the TGI worked out at 3.35 µM.

For the compound `CCCCCCCCCCCCCCCCCC1=NC(C)(C)CN1CC(C)O` (configuration not stated), the GI50 is 12.1 µM and the TGI came to 24.4 µM.

Turning to `CS(=O)(=O)CCNCc1cc(-c2cc3c(Nc4ccc(OCc5cccc(F)c5)c(Cl)c4)ncnc3s2)cs1`, the GI50 was 0.569 µM and the TGI was determined as 4.13 µM.

Regarding `CC[C@H](Nc1ncnc2nc[nH]c12)c1nc2cccc(F)c2c(=O)n1-c1ccccc1`, the GI50 is 2.1 µM and the TGI is 10.4 µM.

Turning to `COc1cc2nc(SCc3cc(OC)c(OC)c(OC)c3)n(Cc3ccccc3)c(=O)c2cc1OC`, the GI50 was 0.307 µM and the TGI came to 1.91 µM.

In the case of `CC(=O)c1ccc2c(c1)C1C=CCC1[C@H](c1cc3c(cc1Br)OCO3)N2` (some centres not stated), the GI50 is 0.308 µM.

Consider `Nc1nonc1-c1nc2cnccc2n1C1CC1`, for which the GI50 is 1.96 µM and the TGI is 10.1 µM.

Regarding `COc1cc2ncn(-c3cc(OCc4ccccc4C(F)(F)F)c(C(=O)N(C)C)s3)c2cc1OC`, the GI50 was 7.66 µM and the TGI is more than 14.7 µM.

As to `CC(C)c1cnn2c(NCc3ccccc3)cc(NC[C@H]3CCNC[C@@H]3O)nc12`, the GI50 is 0.381 µM and 0.519 µM; the TGI was 1.79 µM and 2.33 µM.

For the compound `Cn1c(C(=O)c2ccncc2)cc2ccccc21`, the GI50 was 32.3 µM and the TGI is more than 100 µM.

As to `O=[N+]([O-])c1cc(Cl)c2[nH]c3c(Cl)cc([N+](=O)[O-])cc3c2c1`, the GI50 is 0.169 µM and the TGI stood at 2.26 µM.

Turning to `CCC(O)c1ccc(Br)cc1NC(=O)c1cccc(Cl)c1` (configuration not stated), the GI50 was 20.3 µM and the TGI came to 56.5 µM.

For the compound `COc1cc(OC)c(C(=O)/C=C/c2cc3c(cc2OCc2ccccc2)OC(C)(C)CC3)cc1CC=C(C)C`, the GI50 was 1.86 µM and the TGI amounted to 7.84 µM.

Consider `O=C(NOC[C@H](O)CO)c1ccc(F)c(F)c1Nc1ccc(I)cc1F`, for which the GI50 was 13.9 µM and the TGI was more than 100 µM.

Consider `O=c1c2cc(F)ccc2sc2c(N3CCNCC3)nc3ccc(F)cc3c12`, for which the GI50 was 1.58 µM and the TGI was found to be 3.05 µM.

For the compound `Cc1nc(-c2ccccc2)n2nc(NCCCN3CCOCC3)ncc12`, the GI50 was more than 5.33 µM and the TGI was more than 25 µM.

As to `FC(F)(c1ccc2ncccc2c1)c1nnc2ccc(-c3ccncc3)nn12`, the GI50 was 53.5 µM and the TGI is more than 100 µM.
